# Reference: the supplement of paper PMC10307832
# Assays:
# Experiment in all cases: relative viability (nuclei count vs DMSO), 5 days (fraction); higher = more cells survive
# Doramapimod + Crizotinib = compound: Cc1ccc(-n2nc(C(C)(C)C)cc2NC(=O)Nc2ccc(OCCN3CCOCC3)c3ccccc23)cc1 [Doramapimod] + C[C@@H](Oc1cc(-c2cnn(C3CCNCC3)c2)cnc1N)c1c(Cl)ccc(F)c1Cl [Crizotinib] (partner 1 µM)
# In short: (§1)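 A single step with final 0.05% Triton X-100, 1% formaldehyde and 1 ug/ml Hoechst fixed the cells and stained nuclei 5 days after treatment. Lung cancer cell lines in 1536-well plates had been treated by pin tool the day after seeding with one drug alone or a fixed anchor-drug dose plus five library-drug doses (not always all listed) in √10 steps, and nuclei were counted on 4× images. Relative viability is the ratio of nuclei in treated wells to nuclei in vehicle wells, taken as the median of duplicate plates.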
# Doramapimod + Decitabine = compound: Cc1ccc(-n2nc(C(C)(C)C)cc2NC(=O)Nc2ccc(OCCN3CCOCC3)c3ccccc23)cc1 [Doramapimod] + Nc1ncn([C@H]2C[C@H](O)[C@@H](CO)O2)c(=O)n1 [Decitabine] (partner 2 µM)
# In short: as §1
# Doramapimod + Vorinostat = compound: Cc1ccc(-n2nc(C(C)(C)C)cc2NC(=O)Nc2ccc(OCCN3CCOCC3)c3ccccc23)cc1 [Doramapimod] + O=C(CCCCCCC(=O)Nc1ccccc1)NO [Vorinostat] (partner 1 µM)
# In short: as §1
# RAF265 + Vorinostat = compound: Cn1c(Nc2ccc(C(F)(F)F)cc2)nc2cc(Oc3ccnc(-c4ncc(C(F)(F)F)[nH]4)c3)ccc21 [RAF265] + O=C(CCCCCCC(=O)Nc1ccccc1)NO [Vorinostat] (partner 1 µM)
# In short: as §1
Cell Line,relative viability (Doramapimod + Crizotinib; first compound 0.02 µM),relative viability (Doramapimod + Crizotinib; first compound 0.06325 µM),relative viability (Doramapimod + Crizotinib; first compound 0.2 µM),relative viability (Doramapimod + Crizotinib; first compound 0.6325 µM),relative viability (Doramapimod + Crizotinib; first compound 2 µM),relative viability (Doramapimod + Decitabine; first compound 0.02 µM),relative viability (Doramapimod + Decitabine; first compound 0.06325 µM),relative viability (Doramapimod + Decitabine; first compound 0.2 µM),relative viability (Doramapimod + Decitabine; first compound 0.6325 µM),relative viability (Doramapimod + Decitabine; first compound 2 µM),relative viability (Doramapimod + Vorinostat; first compound 0.02 µM),relative viability (Doramapimod + Vorinostat; first compound 0.06325 µM),relative viability (Doramapimod + Vorinostat; first compound 0.2 µM),relative viability (Doramapimod + Vorinostat; first compound 0.6325 µM),relative viability (Doramapimod + Vorinostat; first compound 2 µM),relative viability (RAF265 + Vorinostat; first compound 0.01 µM),relative viability (RAF265 + Vorinostat; first compound 0.03162 µM),relative viability (RAF265 + Vorinostat; first compound 0.1 µM),relative viability (RAF265 + Vorinostat; first compound 0.3162 µM),relative viability (RAF265 + Vorinostat; first compound 1 µM)
SK-LU-1,0.915,0.929,0.909,0.83,0.92,0.636,0.617,0.662,0.637,0.592,0.944,0.75,0.824,0.933,0.867,0.715,0.449,0.443,0.36,0.262
LOU-NH91,0.729,0.724,0.749,0.796,0.61,0.858,0.806,0.84,0.849,0.711,0.966,0.944,0.945,0.847,0.632,1,0.807,0.926,0.755,0.712
LXF-289,0.839,0.91,0.799,0.793,0.757,0.374,0.393,0.354,0.373,0.351,0.811,0.775,0.747,0.723,0.635,0.768,0.752,0.754,0.606,0.571
NCI-H1299,0.963,0.945,0.936,1,0.902,–,–,–,–,–,–,–,–,–,–,–,–,–,–,–
HARA,1.27,0.966,0.965,1.08,0.992,0.52,0.463,0.49,0.574,0.42,0.532,0.496,0.547,0.506,0.486,0.454,0.64,0.537,0.546,0.192
LU99A,0.562,0.541,0.533,0.585,0.442,0.905,0.948,0.754,0.97,0.759,0.443,0.455,0.578,0.53,0.474,0.515,0.447,0.402,0.286,0.261
201T,1.03,1.06,0.993,1.09,1.01,0.857,0.863,0.886,0.921,0.925,0.994,1.03,1.06,0.672,1,0.975,0.966,0.998,0.974,0.994
HCC-827,0.95,0.869,0.949,0.841,0.666,0.34,0.38,0.326,0.243,0.211,0.854,1.02,0.805,0.85,0.554,0.866,0.808,0.543,–,0.704
NCI-H1666,1.21,0.907,0.959,1.08,0.935,0.768,0.792,0.83,0.659,0.755,1.05,0.986,1.03,1.14,0.944,1.13,0.923,0.906,0.99,0.854
NCI-H1915,0.907,0.894,0.915,0.918,0.779,0.24,0.256,0.256,0.261,0.255,0.52,0.571,0.551,0.563,0.442,0.502,0.436,0.424,0.296,0.201
NCI-H2009,1.04,1.2,1.18,1.08,0.988,0.35,0.408,0.45,0.384,0.329,0.765,0.745,0.762,0.92,0.777,0.744,0.649,0.757,0.761,0.512
ChaGo-K-1,1.15,1.16,1.17,–,1.11,0.555,0.54,0.541,0.49,0.503,0.778,0.769,0.689,0.596,0.64,0.783,0.826,0.727,0.635,0.578
COR-L 105,0.849,0.915,0.798,0.897,0.75,0.602,0.641,0.718,0.802,0.676,0.671,0.881,0.763,1,0.764,1.03,0.896,0.845,0.725,0.495
NCI-H2170,1.12,1.2,1.09,1.22,1.14,0.472,0.459,0.483,0.518,0.469,0.737,0.882,0.704,0.844,0.814,0.859,0.859,0.761,0.393,0.521
A549,0.763,0.747,0.771,0.743,0.762,0.235,0.309,0.312,0.175,0.278,–,–,–,–,–,–,–,–,–,–
SW 1573,0.827,0.613,0.646,0.75,0.743,0.506,0.388,0.615,0.575,0.366,0.9,0.549,0.581,0.791,0.539,1,0.763,0.834,0.792,0.582
NCI-H1975,1.05,0.944,0.897,0.973,0.96,0.384,0.451,0.335,0.386,0.301,0.733,0.724,0.699,0.758,0.636,0.718,0.644,0.542,0.338,0.325
Calu-6,0.823,0.815,0.865,0.866,0.745,–,–,–,–,–,–,–,–,–,–,–,–,–,–,–
SW 900,–,–,–,–,–,0.355,0.439,0.36,0.405,0.437,0.571,0.514,0.546,0.584,0.436,0.544,0.494,0.503,0.381,0.227
NCI-H3122,0.268,0.267,0.223,0.256,0.266,0.427,0.445,0.394,0.491,0.415,1.13,1.07,1.12,0.849,0.859,1.02,1.01,0.93,0.965,0.631

Cell Line,relative viability (Doramapimod + Crizotinib; first compound 0.02 µM),relative viability (Doramapimod + Crizotinib; first compound 0.06325 µM),relative viability (Doramapimod + Crizotinib; first compound 0.2 µM),relative viability (Doramapimod + Crizotinib; first compound 0.6325 µM),relative viability (Doramapimod + Crizotinib; first compound 2 µM),relative viability (Doramapimod + Decitabine; first compound 0.02 µM),relative viability (Doramapimod + Decitabine; first compound 0.06325 µM),relative viability (Doramapimod + Decitabine; first compound 0.2 µM),relative viability (Doramapimod + Decitabine; first compound 0.6325 µM),relative viability (Doramapimod + Decitabine; first compound 2 µM),relative viability (Doramapimod + Vorinostat; first compound 0.02 µM),relative viability (Doramapimod + Vorinostat; first compound 0.06325 µM),relative viability (Doramapimod + Vorinostat; first compound 0.2 µM),relative viability (Doramapimod + Vorinostat; first compound 0.6325 µM),relative viability (Doramapimod + Vorinostat; first compound 2 µM),relative viability (RAF265 + Vorinostat; first compound 0.01 µM),relative viability (RAF265 + Vorinostat; first compound 0.03162 µM),relative viability (RAF265 + Vorinostat; first compound 0.1 µM),relative viability (RAF265 + Vorinostat; first compound 0.3162 µM),relative viability (RAF265 + Vorinostat; first compound 1 µM)
NCI-H2347,0.789,0.568,0.745,0.762,0.644,0.671,0.604,0.626,0.656,0.634,0.652,0.555,0.569,0.644,0.538,0.611,0.517,0.564,0.458,0.344
HCC-44,0.884,0.856,0.755,0.771,0.772,0.958,0.984,1.03,0.945,0.978,1.17,1.18,1.14,1.14,1.2,1.02,1.07,1.19,1.08,1.06
HCC-78,0.356,0.364,0.336,0.399,0.358,0.753,0.794,0.635,0.609,0.624,0.456,0.369,0.492,0.434,0.412,0.459,0.485,0.464,0.645,0.406
COR-L23,0.705,0.573,0.571,0.651,0.667,0.409,0.412,0.507,0.432,0.41,0.449,0.489,0.386,0.537,0.424,0.487,0.297,0.392,0.268,0.248
NCI-H1993,0.739,0.788,0.907,0.919,0.775,0.537,0.578,0.511,0.668,0.53,0.835,0.723,0.819,1.18,0.834,0.9,0.902,0.756,0.823,0.768
NCI-H2405,0.822,0.826,0.877,0.996,0.798,0.758,0.713,0.703,0.861,0.685,1.1,1.12,1.22,0.958,1.02,1.02,0.888,1.08,0.683,0.465
NCI-H2126,0.966,1.06,1.06,1.11,1.05,0.561,0.57,0.543,0.614,0.55,0.792,0.765,0.763,0.671,0.671,0.841,0.771,0.733,0.673,0.464
NCI-H1648,–,–,–,–,–,0.465,0.544,0.452,0.402,0.389,0.348,0.405,0.52,0.709,0.224,0.464,0.539,0.352,0.317,0.263
NCI-H1792,0.762,1.06,1.07,1.04,0.971,0.462,0.532,0.505,0.571,0.47,–,–,–,–,–,–,–,–,–,–
NCI-H1563,0.977,0.917,0.859,0.893,0.612,–,–,–,–,–,–,–,–,–,–,–,–,–,–,–
NCI-H2342,–,–,–,–,–,0.653,0.807,0.686,0.673,0.74,0.761,0.747,0.806,0.849,0.829,0.714,0.809,0.851,0.667,0.764
NCI-H1793,–,–,–,–,–,0.523,0.449,0.526,0.483,0.392,0.718,0.708,0.673,0.749,0.519,0.865,0.697,0.633,0.201,0.311
NCI-H522,–,–,–,–,–,0.751,0.7,0.626,0.683,0.577,0.963,1.05,0.871,0.845,0.874,0.841,1.02,1.05,0.872,0.857
CAL-12T,0.687,0.726,0.746,0.635,0.727,–,–,–,–,–,0.621,0.787,0.713,0.945,0.754,0.781,0.825,0.61,0.606,0.372
EBC-1,0.161,0.196,0.162,0.184,0.188,–,–,–,–,–,–,–,–,–,–,–,–,–,–,–
IA-LM,0.856,–,0.699,0.795,0.792,–,–,–,–,–,0.988,0.868,0.86,–,0.745,1.06,0.779,0.895,0.925,0.849
NCI-H1703,0.614,0.576,0.519,0.783,0.493,–,–,–,–,–,–,–,–,–,–,–,–,–,–,–
NCI-H2228,0.465,0.385,0.425,0.546,0.44,–,–,–,–,–,0.588,0.91,0.496,0.894,0.516,0.554,0.653,0.52,0.324,0.275
NCI-H1395,–,–,–,–,–,0.745,0.722,0.71,0.682,0.64,0.722,0.943,0.975,0.67,0.571,0.791,0.65,0.807,0.554,0.587
